Series [1] concerns MDA-MB-231 cells. Nature of the series: mRNA transfection with HK associated lipid particles (HK polymer + DOTAP liposomes). The note with it: luciferase mRNA. The series is classed as cell-based. The procedure:
FIGS. 8A and 8B. Comparison of mRNA transfection with DOTAP and several HK polymers. To form HK associated lipid particles, the mRNA (1 μg) was initially mixed with the HK polymer (4 μg) for 30 min and then with the DOTAP liposomes (1 μg) for 30 min. HK polyplexes were prepared as described previously. These complexes were then added to the cells for 24 h before the luciferase activity was measured *, P<0.05; **, P<0.01; ***, P<0.001; […].
Transfection with HK associated lipid particles was done similarly as above with few exceptions. In brief, the HK polymer was mixed initially with mRNA at various ratios for 30 min in Opti-MEM. This was followed by adding the DOTAP cationic liposome (1,2-dioleoyl-3-trimethylam-monium-propane; […]; Roche, Basel, CH) for 30 additional min. The Opti-MEM mixture (50 μl) was then added dropwise to the cells.

Series [2] concerns mRNA. Kind of series: Gel retardation assay of HK polymer/mRNA polyplexes. As to conditions: 1:2 and 1:1 ratios (wt:wt; peptide:mRNA). The series is classed as physicochemical. The procedure: FIG. 3. Gel retardation assay. After H3K(+H)4b or H3K4b carriers were mixed with mRNA at the various ratios shown in the figure (wt:wt; peptide:mRNA, mRNA was 1 μg in each) for 30 min, the HK polyplexes were loaded onto the gel (1% agarose). Electrophoresis was carried out at a constant voltage of 75 V for 30 min in TAE buffer and then stained with Sybr Gold as detailed herein. In first lane, RNA standard (New England Biolabls, B0363A) was loaded whereas in the second lane, the control, luciferase mRNA without a carrier was loaded into the well. In subsequent lanes, various ratios of mRNA:HK were loaded into wells.
Gel Retardation Assay. Various amounts of HK polymers were mixed with […] of mRNA and incubated for 30 min at room temperature. Specifically, the following HK polymer/mRNA ratios (w/w) were prepared in water: 1/2; 1/1; 2/1, 4/1, 8/1. After 30 min, the HK polyplex was loaded onto the gel (1% agarose, Sigma-Aldrich; 10× BlueJuice Gel loading buffer, ThermoFisher Scientific), electrophoresis was then carried out at a constant voltage of 75 V for 30 min in TAE buffer (Quality Biologicals, Gaithersburg, MD). The mRNA was stained with Sybr Gold Nucleic Acid dye (SG, 1×) (ThermoFisher Scientific) for 30 min before exposure to the UV imager (ChemiDoc Touch, BIO-RAD, Hercules, CA).

The test system of series [3] is mRNA. Kind of series: Heparin displacement assays (gel electrophoresis and Sybr Gold dye intercalation). The series is classed as physicochemical. The note with it: HK:mRNA 4:1 wt/wt. The procedure:
FIG. 4. Heparin Displacement Assays. After HK polyplexes were formed (wt:wt; HK:mRNA; 4 μg:1 μg), different concentrations of heparin […] were incubated with these for 30 min. A. Gel Retardation. The HK polyplexes were loaded on the agarose gel (1%), and electrophoresis was carried out and stained with Sybr Gold. B. Fluorescent dye intercalation. After the HK polyplexes were formed and incubated with several concentrations of heparin, the Sybr Gold nucleic acid dye was incubated with the HK polyplexes for 5 mins. Fluorescence was then measured by a microplate fluorimeter (λex=497 nm, λem=520 nm) (SynergyMx, BioTek). *, P<0.05; ***, P<0.001; H3K4b or H2K vs. H3K(+H)4b.
Heparin Displacement Assays. Heparin displacement assays of HK polyplexes were done with the dye intercalation assay and with gel electrophoresis. A fluorescent assay assessed polyplexes of HK polymer and mRNA (4:1 wt/wt ratio; polymer:mRNA) formed in RNAse/DNAase free water (Corning, Manassas, VA). HK polyplexes were prepared as described previously, followed by the addition of diluted Syber Gold. For detection, working dilutions of the polyplexes (1/5 of volume), water (3/5) and Sybr Gold dye (1/5, 0.2×) were incubated for 5 minutes, and fluorescence was measured by a fluorimeter (Ex=497 nm, Em=520 nm) (SynergyMx, BioTek, Winooski, VT). The control sample was prepared with the same amount of mRNA, water, and Sybr Gold dye. For the heparin displacement, instead of water, heparin salt (Sigma-Aldrich, St. Louis, MO) solutions at different concentrations (0.5, 1, 1.5, 2, 3 μg/μl) were used, and the HK polyplexes were incubated at 37° C. for 30 min before addition of Sybr Gold.
Displacement of mRNA from HK polyplexes with heparin was also done with gel electrophoresis. After HK polyplexes were formed, different concentrations of heparin (0.5, 1.0, 1.5, 2.0, 3.0 μg/μl; volume 20 μl) were incubated with these at 37° C. for 30 min. The polyplexes were then loaded on the agarose gel (1%; 10× BlueJuice Gel loading buffer), and electrophoresis was carried out and stained with SG as described above. […]

Series [4] is described as follows: Particle size, polydispersity index (PDI) and zeta potential of polyplexes (Zetasizer). The series is classed as physicochemical. The procedure: Particle size, polydispersity index (PDI), and zeta potential. The size, PDI, and zeta potential were determined with the Zetasizer (Malvern, Westborough, Mass.) and analyzed with software provided by the instrument manufacturer (Zetasizer software, version 6.2). Using dynamic light scattering at a 90° angle, the size of the particles were reported as the Z-average diameter from the intensity-weighted size distribution. Prior to the measurements, the samples were equilibrated to 25° C. for 2 min. Each measurement had at least ten sub-runs under the automatic mode of the software. The particle size, PDI, and zeta potential data point represent the mean±SD of three measurements. After mixing HK peptides (4 μg) and mRNA (1 μg) in 100 μl of defined media (Opti-MEM, water, or DMEM/8% FBS) for 30 min, 100 μl of additional defined media was added to the polyplex solution (total volume 200 μl) to measure the size and PDI. To determine the zeta potential, 800 μl more of the media was added (total volume 1000 μl), mixed gently, and then added to the disposable zeta cell.
Because different stabilities were observed between the H3K4b and H3K(+H)4b polyplexes, whether the sizes of these polyplexes varied based on the media in which they were prepared was investigated. […] H3K(+H)4b and H3K4b peptides (4 μg) in complex with mRNA (1 μg) were mixed with either Opti-MEM, water, or DMEM/8% FBS […]. After 1 h, the size, PDI, and zeta potential were measured.

For series [5] the following is noted: prior studies [34, 35, 45]; cited from earlier work.
The mark [6] stands for this setting: polyplex HK 4 μg:mRNA 1 μg in DMEM/8% FBS.
[7] abbreviates: polyplex HK 4 μg:mRNA 1 μg in Opti-MEM.
Setting [8] is: polyplex HK 4 μg:mRNA 1 μg in Water.

Bridges are numbered along the chain shown (N, C = ends). Roman numbers before positions name the chains, in order. Where no end group is shown, it is not given here.

This is an account of results in patent US20230313181A1, “HISTIDINE-LYSINE POLYMERS AND METHODS FOR DELIVERING MRNA USING THE SAME” (UNIVERSITY OF MARYLAND, BALTIMORE, priority 2019, published 2023).

For the substance “I: KHHHKHHHKHHHHKHHHKKKK-NH2 / II: KHHHKHHHKHHHHKHHHK / III: KHHHKHHHKHHHHKHHHK / IV: KHHHKHHHKHHHHKHHHK (amide I:19-IV:C, I:20-III:C, I:21-II:C) [H3K(+H)4b]”, the “mRNA transfection compared with DOTAP liposomes (in words)” value in series [1] was “significantly better carriers of mRNA than the DOTAP liposomes”. For the same substance, the “retardation of mRNA at low ratios compared with H3K4b (in words)” value in series [2] was “markedly less retarded”. Besides, in series [3], the “binding/release of mRNA and polyplex stability on exposure to heparin (in words)” value is “binds more tightly to the mRNA”. In series [4] (setting [6]), the PDI turned out to be 0.307, the Size is 289 ± 38.2 nm and the “Zeta Potential” value was −12.7 ± 1.04 mV. In series [4] (setting [7]), the PDI worked out at 0.362, the Size was 1004 ± 61.1 nm and the “Zeta Potential” value is reported as 2.92 ± 1.83 mV. Moreover, in series [4] (setting [8]), the PDI stood at 0.212, the Size was found to be 234.9 ± 2.7 nm and the “Zeta Potential” value is recorded as 20.77 ± 1.12 mV. In series [5], the “carrier of siRNA (in words)” value is “effective carriers of siRNA”.
